Target: IKZF2 (Homo sapiens (Human), UniProt Q96SW2+Q9UKS7)
Assay: IKZF2 HiBiT Assay (Jurkat-IKZF2-HiBiT cell line)
Type: cell-based
Settings: Jurkat-IKZF2-HiBiT cells, 24 hours; for DC50: read-out: HiBit assay degradation analysis DC50; for Dmax: read-out: HiBit assay degradation analysis Dmax
In short: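 Jurkat cells carrying HiBiT-tagged IKZF2 were exposed to serially diluted compound for 24 h at 37 °C. Remaining IKZF2 was measured by Nano-Glo HiBiT lytic luminescence after 10-20 min at room temperature. Signal was normalized to DMSO, and IC50 came from a four-parameter variable-slope fit.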

IKZF2, sequence (Q9UKS7 whole entry): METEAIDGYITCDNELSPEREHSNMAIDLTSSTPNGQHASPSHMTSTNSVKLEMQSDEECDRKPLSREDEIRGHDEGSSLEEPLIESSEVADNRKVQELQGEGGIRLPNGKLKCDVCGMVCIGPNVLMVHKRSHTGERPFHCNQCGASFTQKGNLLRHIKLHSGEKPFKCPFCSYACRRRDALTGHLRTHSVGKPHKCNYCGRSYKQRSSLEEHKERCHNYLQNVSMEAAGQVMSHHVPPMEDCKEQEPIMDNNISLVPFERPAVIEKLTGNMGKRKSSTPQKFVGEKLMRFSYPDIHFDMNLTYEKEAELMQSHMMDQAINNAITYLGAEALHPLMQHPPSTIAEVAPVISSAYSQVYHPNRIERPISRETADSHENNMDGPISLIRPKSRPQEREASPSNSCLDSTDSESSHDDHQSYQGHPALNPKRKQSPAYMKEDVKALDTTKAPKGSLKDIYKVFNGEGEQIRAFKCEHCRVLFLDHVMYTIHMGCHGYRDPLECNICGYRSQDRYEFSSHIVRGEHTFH
IKZF2, sequence (Q96SW2 whole entry): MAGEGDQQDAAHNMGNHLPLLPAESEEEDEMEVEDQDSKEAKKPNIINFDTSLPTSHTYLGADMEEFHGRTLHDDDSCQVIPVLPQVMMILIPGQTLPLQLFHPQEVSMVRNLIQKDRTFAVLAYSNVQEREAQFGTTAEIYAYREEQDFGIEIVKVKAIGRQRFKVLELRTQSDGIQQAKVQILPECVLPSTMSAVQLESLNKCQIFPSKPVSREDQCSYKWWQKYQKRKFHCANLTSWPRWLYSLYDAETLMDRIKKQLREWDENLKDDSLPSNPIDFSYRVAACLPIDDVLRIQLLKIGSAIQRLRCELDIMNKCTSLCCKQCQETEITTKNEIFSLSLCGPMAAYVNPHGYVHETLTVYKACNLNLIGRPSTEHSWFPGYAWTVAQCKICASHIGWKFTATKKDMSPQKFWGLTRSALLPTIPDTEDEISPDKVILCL
IKZF2, sequence (Q16531 whole entry partner): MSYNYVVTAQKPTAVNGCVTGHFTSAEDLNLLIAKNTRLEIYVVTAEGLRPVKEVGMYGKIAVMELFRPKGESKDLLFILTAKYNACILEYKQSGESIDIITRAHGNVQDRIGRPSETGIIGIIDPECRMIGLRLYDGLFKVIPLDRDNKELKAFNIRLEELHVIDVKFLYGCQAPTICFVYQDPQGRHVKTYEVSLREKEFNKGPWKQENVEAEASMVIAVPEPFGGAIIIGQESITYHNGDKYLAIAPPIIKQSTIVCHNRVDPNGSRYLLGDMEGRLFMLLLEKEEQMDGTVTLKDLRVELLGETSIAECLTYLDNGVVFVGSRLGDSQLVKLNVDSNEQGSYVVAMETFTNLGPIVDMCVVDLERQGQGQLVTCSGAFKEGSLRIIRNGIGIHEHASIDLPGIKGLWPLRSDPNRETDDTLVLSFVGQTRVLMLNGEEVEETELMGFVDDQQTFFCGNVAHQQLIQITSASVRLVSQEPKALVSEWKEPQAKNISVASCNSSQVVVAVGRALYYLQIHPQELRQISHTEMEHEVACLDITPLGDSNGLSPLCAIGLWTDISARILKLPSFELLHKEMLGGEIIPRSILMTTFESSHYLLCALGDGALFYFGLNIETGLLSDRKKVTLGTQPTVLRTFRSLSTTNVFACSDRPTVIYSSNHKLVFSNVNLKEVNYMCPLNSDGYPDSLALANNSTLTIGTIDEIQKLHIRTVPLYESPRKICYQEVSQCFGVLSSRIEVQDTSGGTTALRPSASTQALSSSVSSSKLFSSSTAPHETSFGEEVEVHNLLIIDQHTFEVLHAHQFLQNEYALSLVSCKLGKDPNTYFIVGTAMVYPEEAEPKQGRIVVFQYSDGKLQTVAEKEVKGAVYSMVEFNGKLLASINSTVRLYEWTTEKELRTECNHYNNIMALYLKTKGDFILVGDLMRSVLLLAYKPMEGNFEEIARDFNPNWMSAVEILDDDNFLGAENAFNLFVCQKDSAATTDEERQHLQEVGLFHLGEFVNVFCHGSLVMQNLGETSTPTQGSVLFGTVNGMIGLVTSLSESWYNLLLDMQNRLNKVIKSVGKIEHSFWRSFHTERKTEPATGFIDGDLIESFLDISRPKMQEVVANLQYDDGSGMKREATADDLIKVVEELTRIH

Row | Compound | DC50 [nM] | Dmax [%]
1 | O=C1CCC(N2Cc3c(ccc4c3OCC43CCN(CC4CCN(c5ccccc5)C4)CC3)C2=O)C(=O)N1 (centres unmarked) [Compound A138, 3-(6-oxo-1′-((1-phenylpyrrolidin-3-yl)methyl)-6,8-dihydro-2H,7H-spiro[furo[2,3-e]isoindole-3,4′-piperidin]-7-yl)piperidine-2,6-dione] | > 500 | 40 to 60
2 | O=C1CC[C@H](N2Cc3c(ccc4c3OCC43CCN(Cc4cccc(-c5cnn(CCF)c5)c4)CC3)C2=O)C(=O)N1 [Compound A293, (S)-3-(1′-(3-(1-(2-fluoroethyl)-1H-pyrazol-4-yl)benzyl)-6-oxo-6,8-dihydro-2H,7H-spiro[furo[2,3-e]isoindole-3,4′-piperidin]-7-yl)piperidine-2,6-dione] | < 50 | 60 to 80
3 | O=C1CCC(N2Cc3c(ccc4c3OCC43CCN(Cc4cnn(Cc5ccc(Cl)cc5)c4)CC3)C2=O)C(=O)N1 (centres unmarked) [Compound A241, 3-(1′-((1-(4-chlorobenzyl)-1H-pyrazol-4-yl)methyl)-6-oxo-6,8-dihydro-2H,7H-spiro[furo[2,3-e]isoindole-3,4′-piperidin]-7-yl)piperidine-2,6-dione] | < 50 | 60 to 80
4 | O=C1CCC(N2Cc3c(ccc4c3OCC43CCN(Cc4cccc5ccnn45)CC3)C2=O)C(=O)N1 (centres unmarked) [Compound A76, 3-(6-oxo-1′-(pyrazolo[1,5-]pyridin-7-ylmethyl)-6,8-dihydro-2H,7H-spiro[furo[2,3-e]isoindole-3,4′-piperidin]-7-yl)piperidine-2,6-dione] | > 500 | < 40
5 | Cn1nc(CN2CCC3(CC2)COc2c3ccc3c2CN(C2CCC(=O)NC2=O)C3=O)c2ccccc21 (centres unmarked) [Compound A226, 3-(1′-((1-methyl-1H-indazol-3-yl)methyl)-6-oxo-6,8-dihydro-2H,7H-spiro[furo[2,3-e]isoindole-3,4′-piperidin]-7-yl)piperidine-2,6-dione] | > 500 | 40 to 60
6 | O=C1CCC(N2Cc3c(ccc4c3OCC43CCN(Cc4c(F)ccc5[nH]ccc45)CC3)C2=O)C(=O)N1 (centres unmarked) [Compound A137, 3-(1′-((5-fluoro-1H-indol-4-yl)methyl)-6-oxo-6,8-dihydro-2H,7H-spiro[furo[2,3-e]isoindole-3,4′-piperidin]-7-yl)piperidine-2,6-dione] | < 50 | 60 to 80
7 | O=C1CC[C@H](N2Cc3c(ccc4c3OCC43CCN(Cc4cccc(-c5cnn(C6COC6)c5)c4)CC3)C2=O)C(=O)N1 [Compound A265, (S)-3-(1′-(3-(1-(oxetan-3-yl)-1H-pyrazol-4-yl)benzyl)-6-oxo-6,8-dihydro-2H,7H-spiro[furo[2,3-e]isoindole-3,4′-piperidin]-7-yl)piperidine-2,6-dione] | < 50 | 60 to 80
8 | O=C1CCC(N2Cc3c(ccc4c3OCC43CCN(Cc4cc(F)cc(F)c4)CC3)C2=O)C(=O)N1 (centres unmarked) [Compound A28, 3-(1′-(3,5-difluorobenzyl)-6-oxo-6,8-dihydro-2H,7H-spiro[furo[2,3-e]isoindole-3,4′-piperidin]-7-yl)piperidine-2,6-dione] | > 500 | 40 to 60
9 | COCc1cccc(CN2CCC3(CC2)COc2c3ccc3c2CN(C2CCC(=O)NC2=O)C3=O)c1 (centres unmarked) [Compound A112, 3-(1′-(3-(methoxymethyl)benzyl)-6-oxo-6,8-dihydro-2H,7H-spiro[furo[2,3-e]isoindole-3,4′-piperidin]-7-yl)piperidine-2,6-dione] | 200 to 500 | 60 to 80
10 | O=C1CCC(N2Cc3c(ccc4c3OCC43CCN(Cc4ccc5ccccc5c4)CC3)C2=O)C(=O)N1 (centres unmarked) [Compound A34, 3-(1′-(naphthalen-2-ylmethyl)-6-oxo-6,8-dihydro-2H,7H-spiro[furo[2,3-e]isoindole-3,4′-piperidin]-7-yl)piperidine-2,6-dione] | < 50 | 60 to 80
11 | O=C1CCC(N2Cc3c(ccc4c3OCC43CCN(Cc4ccn(-c5ccccc5F)n4)CC3)C2=O)C(=O)N1 (centres unmarked) [Compound A323, 3-(1′-((1-(2-fluorophenyl)-1H-pyrazol-3-yl)methyl)-6-oxo-6,8-dihydro-2H,7H-spiro[furo[2,3-e]isoindole-3,4′-piperidin]-7-yl)piperidine-2,6-dione] | > 500 | < 40
12 | O=C1CCC(N2Cc3c(ccc4c3OCC43CCN(Cc4ccn5ccnc5c4)CC3)C2=O)C(=O)N1 (centres unmarked) [Compound A78] | 200 to 500 | 40 to 60
13 | O=C1CCC(N2Cc3c(ccc4c3OCC43CCN(CC4CC5CCC4C5)CC3)C2=O)C(=O)N1 (centres unmarked) [Compound A24, 3-(1′-(bicyclo[2.2.1]heptan-2-ylmethyl)-6-oxo-6,8-dihydro-2H,7H-spiro[furo[2,3-e]isoindole-3,4′-piperidin]-7-yl)piperidine-2,6-dione] | > 500 | 40 to 60
14 | CNC(=O)c1cccc(CN2CCC3(CC2)COc2c3ccc3c2CN(C2CCC(=O)NC2=O)C3=O)c1 (centres unmarked) [Compound A95] | > 500 | 40 to 60
15 | CC(C)Oc1cc(F)ccc1CN1CCC2(CC1)COc1c2ccc2c1CN([C@H]1CCC(=O)NC1=O)C2=O [Compound A361, (S)-3-(1′-(4-fluoro-2-isopropoxybenzyl)-6-oxo-6,8-dihydro-2H,7H-spiro[furo[2,3-e]isoindole-3,4′-piperidin]-7-yl)piperidine-2,6-dione] | > 500 | 40 to 60
16 | O=C1CCC(N2Cc3c(ccc4c3OCC43CCN(Cc4ccc(F)c5[nH]ncc45)CC3)C2=O)C(=O)N1 (centres unmarked) [Compound A136, 3-(1′-((7-fluoro-1H-indazol-4-yl)methyl)-6-oxo-6,8-dihydro-2H,7H-spiro[furo[2,3-e]isoindole-3,4′-piperidin]-7-yl)piperidine-2,6-dione] | < 50 | 40 to 60
17 | O=C1CCC(N2Cc3c(ccc4c3OCC43CCN(Cc4cnn(-c5ccc(F)cc5)c4)CC3)C2=O)C(=O)N1 (centres unmarked) [Compound A312, 3-(1′-((1-(4-fluorophenyl)-1H-pyrazol-4-yl)methyl)-6-oxo-6,8-dihydro-2H,7H-spiro[furo[2,3-e]isoindole-3,4′-piperidin]-7-yl)piperidine-2,6-dione] | > 500 | 40 to 60
18 | O=C1CCC(N2Cc3c(ccc4c3OCC43CCN(Cc4ccc(-c5ccccc5)cc4)CC3)C2=O)C(=O)N1 (centres unmarked) [Compound A25, 3-(1′-([1,1′-biphenyl]-4-ylmethyl)-6-oxo-6,8-dihydro-2H,7H-spiro[furo[2,3-e]isoindole-3,4′-piperidin]-7-yl)piperidine-2,6-dione] | > 500 | 40 to 60
19 | O=C1CCC(N2Cc3c(ccc4c3OCC43CCN(Cc4coc(-c5ccccc5)n4)CC3)C2=O)C(=O)N1 (centres unmarked) [Compound A83, 3-(6-oxo-1′-((2-phenyloxazol-4-yl)methyl)-6,8-dihydro-2H,7H-spiro[furo[2,3-e]isoindole-3,4′-piperidin]-7-yl)piperidine-2,6-dione] | > 500 | < 40
20 | O=C1CCC(N2Cc3c(ccc4c3OCC43CCN(Cc4cccnc4Cl)CC3)C2=O)C(=O)N1 (centres unmarked) [Compound A249, 3-(1′-((2-chloropyridin-3-yl)methyl)-6-oxo-6,8-dihydro-2H,7H-spiro[furo[2,3-e]isoindole-3,4′-piperidin]-7-yl)piperidine-2,6-dione] | > 500 | < 40
21 | CN1CC2(CCN(Cc3cccc(-c4cnn(C)c4)c3)CC2)c2ccc3c(c21)CN(C1CCC(=O)NC1=O)C3=O (centres unmarked) [Compound A308, 3-(1′-methyl-1-(3-(1-methyl-1H-pyrazol-4-yl)benzyl)-6′-oxo-1′,2′,6′,8′-tetrahydro-7′H-spiro[piperidine-4,3′-pyrrolo[3,4-g]indol]-7′-yl)piperidine-2,6-dione] | > 500 | < 40
22 | O=C1CCC(N2Cc3c(ccc4c3OCC43CCN(Cc4cccc(C5CC5)c4)CC3)C2=O)C(=O)N1 (centres unmarked) [Compound A204, 3-(1′-(3-cyclopropylbenzyl)-6-oxo-6,8-dihydro-2H,7H-spiro[furo[2,3-e]isoindole-3,4′-piperidin]-7-yl)piperidine-2,6-dione] | > 500 | 40 to 60
23 | O=C1CC[C@H](N2Cc3c(ccc4c3OCC43CCN(Cc4cnn(S(=O)(=O)c5ccccc5Cl)c4)CC3)C2=O)C(=O)N1 [Compound A349, (S)-3-(1′-((1-((2-chlorophenyl)sulfonyl)-1H-pyrazol-4-yl)methyl)-6-oxo-6,8-dihydro-2H,7H-spiro[furo[2,3-e]isoindole-3,4′-piperidin]-7-yl)piperidine-2,6-dione] | < 50 | 60 to 80
24 | O=C1CC[C@H](N2Cc3c(ccc4c3OCC43CCN(Cc4cccc(NC(=O)C(F)(F)F)c4)CC3)C2=O)C(=O)N1 [Compound A278, (S)-N-(3-((7-(2,6-dioxopiperidin-3-yl)-6-oxo-7,8-dihydro-2H,6H-spiro[furo[2,3-e]isoindole-3,4′-piperidin]-1′-yl)methyl)phenyl)-2,2,2-trifluoroacetamide] | < 50 | > 80
25 | O=C1CCC(N2Cc3c(ccc4c3OCC43CCN(Cc4ccc(Cl)cc4F)CC3)C2=O)C(=O)N1 (centres unmarked) [Compound A4, 3-(1′-(4-chloro-2-fluorobenzyl)-6-oxo-6,8-dihydro-2H,7H-spiro[furo[2,3-e]isoindole-3,4′-piperidin]-7-yl)piperidine-2,6-dione] | > 500 | 40 to 60
26 | O=C1CCC(N2Cc3c(ccc4c3OCC43CCN(Cc4cnn(S(=O)(=O)c5cccc(Cl)c5)c4)CC3)C2=O)C(=O)N1 [Compound A350, (S)-3-(1′-((1-((3-chlorophenyl)sulfonyl)-1H-pyrazol-4-yl)methyl)-6-oxo-6,8-dihydro-2H,7H-spiro[furo[2,3-e]isoindole-3,4′-piperidin]-7-yl)piperidine-2,6-dione] | < 50 | –
27 | O=C1CC[C@H](N2Cc3c(ccc4c3OCC43CCN(C[C@@H]4C[C@H]4c4ccc(F)cc4)CC3)C2=O)C(=O)N1 [Compound A362, (S)-3-(1′-(((1R,2R)-2-(4-fluorophenyl)cyclopropyl)methyl)-6-oxo-6,8-dihydro-2H,7H-spiro[furo[2,3-e]isoindole-3,4′-piperidin]-7-yl)piperidine-2,6-dione] | > 500 | 40 to 60
